Test system: Normal human keratinocytes (HEKa)
Assay: Real-time quantitative PCR gene expression in normal human keratinocytes treated for 24 hours
Assay type: cell-based

In the case of `C=CC1=C(C)C2=CC3=NC(=C(CC(=O)[O-])C4=NC(=C(C)C4=C([O-])[O-])C=c4[n-]c(c(C)c4CC)=CC1=N2)[C@@H](CCC(=O)[O-])[C@@H]3C.[Cu+2].[Na+].[Na+].[Na+]` [TCCE6, trisodium copper (II) chlorin e6], the “Fold Up- or Down-Regulation 18S” value (gene 18S (housekeeping), 20 ug/mL, vs. water-treated control) was 1.1 Fold, the “Fold Up- or Down-Regulation AQP3” value (gene AQP3, 20 ug/mL, vs. water-treated control) was 1.7 Fold and the “Fold Up- or Down-Regulation AREL1” value (gene AREL1, 20 ug/mL, vs. water-treated control) was −1.0 Fold. The “Fold Up- or Down-Regulation ARRDC3” value (gene ARRDC3, 20 ug/mL, vs. water-treated control) was 6.1 Fold, the “Fold Up- or Down-Regulation BAMBI” value (gene BAMBI, 20 ug/mL, vs. water-treated control) was 6.2 Fold and the “Fold Up- or Down-Regulation CCL20” value (gene CCL20, 20 ug/mL, vs. water-treated control) was 1.3 Fold. The “Fold Up- or Down-Regulation CDKN1A” value (gene CDKN1A, 20 ug/mL, vs. water-treated control) was 1.5 Fold, the “Fold Up- or Down-Regulation CSF1” value (gene CSF1, 20 ug/mL, vs. water-treated control) was −1.3 Fold and the “Fold Up- or Down-Regulation CSF2” value (gene CSF2, 20 ug/mL, vs. water-treated control) was −1.2 Fold. The “Fold Up- or Down-Regulation CXCL1” value (gene CXCL1, 20 ug/mL, vs. water-treated control) was 1.6 Fold, the “Fold Up- or Down-Regulation CXCL2” value (gene CXCL2, 20 ug/mL, vs. water-treated control) was 1.2 Fold and the “Fold Up- or Down-Regulation CXCL3” value (gene CXCL3, 20 ug/mL, vs. water-treated control) was 1.7 Fold. For the same compound, the “Fold Up- or Down-Regulation CXCL8” value (gene CXCL8, 20 ug/mL, vs. water-treated control) was 1.1 Fold, the “Fold Up- or Down-Regulation CXCL10” value (gene CXCL10, 20 ug/mL, vs. water-treated control) was 2.0 Fold and the “Fold Up- or Down-Regulation CYB561” value (gene CYB561, 20 ug/mL, vs. water-treated control) was −1.1 Fold. The “Fold Up- or Down-Regulation CYP1A1” value (gene CYP1A1, 20 ug/mL, vs. water-treated control) was −1.8 Fold, the “Fold Up- or Down-Regulation DDX5” value (gene DDX5, 20 ug/mL, vs. water-treated control) was 1.0 Fold and the “Fold Up- or Down-Regulation DEFB1” value (gene DEFB1, 20 ug/mL, vs. water-treated control) was 2.2 Fold. For the same compound, the “Fold Up- or Down-Regulation EPGN” value (gene EPGN, 20 ug/mL, vs. water-treated control) was 2.3 Fold, the “Fold Up- or Down-Regulation FGF2” value (gene FGF2, 20 ug/mL, vs. water-treated control) was −1.2 Fold and the “Fold Up- or Down-Regulation FOS” value (gene FOS, 20 ug/mL, vs. water-treated control) was 3.7 Fold. For the same compound, the “Fold Up- or Down-Regulation G2E3” value (gene G2E3, 20 ug/mL, vs. water-treated control) was −1.2 Fold, the “Fold Up- or Down-Regulation GDF15” value (gene GDF15, 20 ug/mL, vs. water-treated control) was 1.9 Fold and the “Fold Up- or Down-Regulation GPADH” value (gene GPADH (housekeeping), 20 ug/mL, vs. water-treated control) was −1.2 Fold. The “Fold Up- or Down-Regulation GPX2” value (gene GPX2, 20 ug/mL, vs. water-treated control) was −1.1 Fold, the “Fold Up- or Down-Regulation HBEGF” value (gene HBEGF, 20 ug/mL, vs. water-treated control) was 2.5 Fold and the “Fold Up- or Down-Regulation HECTD1” value (gene HECTD1, 20 ug/mL, vs. water-treated control) was −1.0 Fold. For the same compound, the “Fold Up- or Down-Regulation HERC1” value (gene HERC1, 20 ug/mL, vs. water-treated control) was 1.1 Fold, the “Fold Up- or Down-Regulation HIF1AN” value (gene HIF1AN, 20 ug/mL, vs. water-treated control) was −1.3 Fold and the “Fold Up- or Down-Regulation HPRT1” value (gene HPRT1 (housekeeping), 20 ug/mL, vs. water-treated control) was 1.0 Fold. For the same compound, the “Fold Up- or Down-Regulation HSP90B1” value (gene HSP90B1, 20 ug/mL, vs. water-treated control) was 1.4 Fold, the “Fold Up- or Down-Regulation IFI44L” value (gene IFI44L, 20 ug/mL, vs. water-treated control) was −2.5 Fold and the “Fold Up- or Down-Regulation JUN” value (gene JUN, 20 ug/mL, vs. water-treated control) was 1.2 Fold. For the same compound, the “Fold Up- or Down-Regulation JUNB” value (gene JUNB, 20 ug/mL, vs. water-treated control) was 1.9 Fold, the “Fold Up- or Down-Regulation LTB4R” value (gene LTB4R, 20 ug/mL, vs. water-treated control) was 1.1 Fold and the “Fold Up- or Down-Regulation MAFF” value (gene MAFF, 20 ug/mL, vs. water-treated control) was 2.2 Fold. The “Fold Up- or Down-Regulation MAP1LC3B” value (gene MAP1LC3B, 20 ug/mL, vs. water-treated control) was 1.5 Fold, the “Fold Up- or Down-Regulation MAPK14” value (gene MAPK14, 20 ug/mL, vs. water-treated control) was −1.1 Fold and the “Fold Up- or Down-Regulation MGAT1” value (gene MGAT1, 20 ug/mL, vs. water-treated control) was −1.7 Fold. For the same compound, the “Fold Up- or Down-Regulation MGAT5” value (gene MGAT5, 20 ug/mL, vs. water-treated control) was 1.2 Fold, the “Fold Up- or Down-Regulation MOGS” value (gene MOGS, 20 ug/mL, vs. water-treated control) was −1.3 Fold and the “Fold Up- or Down-Regulation N4BP1” value (gene N4BP1, 20 ug/mL, vs. water-treated control) was 1.3 Fold. The “Fold Up- or Down-Regulation NFKBIA” value (gene NFKBIA, 20 ug/mL, vs. water-treated control) was 1.3 Fold, the “Fold Up- or Down-Regulation PELI1” value (gene PELI1, 20 ug/mL, vs. water-treated control) was 1.4 Fold and the “Fold Up- or Down-Regulation PLAUR” value (gene PLAUR, 20 ug/mL, vs. water-treated control) was 9.7 Fold. The “Fold Up- or Down-Regulation PPP1R15A” value (gene PPP1R15A, 20 ug/mL, vs. water-treated control) was 2.5 Fold, the “Fold Up- or Down-Regulation PTGFRN” value (gene PTGFRN, 20 ug/mL, vs. water-treated control) was −2.6 Fold and the “Fold Up- or Down-Regulation PTGS2” value (gene PTGS2, 20 ug/mL, vs. water-treated control) was 2.4 Fold. For the same compound, the “Fold Up- or Down-Regulation PTX3” value (gene PTX3, 20 ug/mL, vs. water-treated control) was 1.8 Fold, the “Fold Up- or Down-Regulation REL” value (gene REL, 20 ug/mL, vs. water-treated control) was −1.1 Fold and the “Fold Up- or Down-Regulation RSAD2” value (gene RSAD2, 20 ug/mL, vs. water-treated control) was 1.2 Fold. The “Fold Up- or Down-Regulation SAMD9L” value (gene SAMD9L, 20 ug/mL, vs. water-treated control) was 1.5 Fold, the “Fold Up- or Down-Regulation SOD2” value (gene SOD2, 20 ug/mL, vs. water-treated control) was −1.4 Fold and the “Fold Up- or Down-Regulation SPRR2B” value (gene SPRR2B, 20 ug/mL, vs. water-treated control) was 6.5 Fold. For the same compound, the “Fold Up- or Down-Regulation TGFB1” value (gene TGFB1, 20 ug/mL, vs. water-treated control) was −1.2 Fold, the “Fold Up- or Down-Regulation TNF” value (gene TNF, 20 ug/mL, vs. water-treated control) was 1.2 Fold and the “Fold Up- or Down-Regulation TNFAIP3” value (gene TNFAIP3, 20 ug/mL, vs. water-treated control) was 2.6 Fold. For the same compound, the “Fold Up- or Down-Regulation UBE2S” value (gene UBE2S, 20 ug/mL, vs. water-treated control) was −1.1 Fold, the “Fold Up- or Down-Regulation UBE3B” value (gene UBE3B, 20 ug/mL, vs. water-treated control) was 1.4 Fold and the “Fold Up- or Down-Regulation UBE4B” value (gene UBE4B, 20 ug/mL, vs. water-treated control) was −1.4 Fold. The “Fold Up- or Down-Regulation UBE20” value (gene UBE20, 20 ug/mL, vs. water-treated control) was 2.5 Fold, the “Fold Up- or Down-Regulation VCP” value (gene VCP, 20 ug/mL, vs. water-treated control) was 1.2 Fold and the “Fold Up- or Down-Regulation VEGFA” value (gene VEGFA, 20 ug/mL, vs. water-treated control) was 2.5 Fold. For the same compound, the “fold value changes of significantly (p<0.05) upregulated or downregulated genes” value (genes ARRDC3, BAMBI, CXCL10, DEFB1, EPGN, FOS, HBEGF, IFI44L, MAFF, PLAUR, PPP1R15A, PTGS2, SPRR2B, TNFAIP3, UBE20, VEGFA, 20 ug/mL) was no less than 2.0 ×.
